Experimental data taken from ChEMBL document CHEMBL1201862, “PubChem BioAssay data set” (2004).
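Five concentrations, 48 hours, 96-well plates. Here, GI50 denotes the concentration required for 50% inhibition of growth.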 Active and inactive are the calls of the source. Cut-off read from the data, not from the text of the source: active = GI50 up to about 1.1 µM and inactive = higher.

How the values were obtained:
Test in all cases: growth of human tumour cells (NCI), 48 h
786-0 = system: 786-0
A549 = system: A549
ACHN = system: ACHN
CAKI-1 = system: CAKI-1
CCRF-CEM = system: CCRF-CEM
COLO 205 = system: COLO 205
DU-145 = system: DU-145
EKVX = system: EKVX
HCC 2998 = system: HCC 2998
HCT-116 = system: HCT-116
HCT-15 = system: HCT-15
HL-60 = system: HL-60
HOP-62 = system: HOP-62
HOP-92 = system: HOP-92
HT-29 = system: HT-29
Hs-578T = system: Hs-578T
IGROV-1 = system: IGROV-1
K562 = system: K562
KM12 = system: KM12
LOX IMVI = system: LOX IMVI
M14 = system: M14
MCF7 = system: MCF7
MDA-MB-231 = system: MDA-MB-231
MDA-MB-435 = system: MDA-MB-435
MDA-N = system: MDA-N
MOLT-4 = system: MOLT-4
Malme-3M = system: Malme-3M
NCI-H226 = system: NCI-H226
NCI-H23 = system: NCI-H23
NCI-H460 = system: NCI-H460
NCI-H522 = system: NCI-H522
NCI/ADR-RES = system: NCI/ADR-RES
OVCAR-3 = system: OVCAR-3
OVCAR-4 = system: OVCAR-4
OVCAR-5 = system: OVCAR-5
OVCAR-8 = system: OVCAR-8
PC-3 = system: PC-3
RPMI-8226 = system: RPMI-8226
RXF 393 = system: RXF 393
SF-268 = system: SF-268
SF-295 = system: SF-295
SK-MEL-28 = system: SK-MEL-28
SK-MEL-2 = system: SK-MEL-2
SK-MEL-5 = system: SK-MEL-5
SK-OV-3 = system: SK-OV-3
SN12C = system: SN12C
SNB-19 = system: SNB-19
SNB-75 = system: SNB-75
SR = system: SR
SW-620 = system: SW-620
T47D = system: T47D
TK-10 = system: TK-10
U-251 = system: U-251
UACC-257 = system: UACC-257
UACC-62 = system: UACC-62
UO-31 = system: UO-31
A498 = system: A498
SF-539 = system: SF-539

CCCCCCCCCCOC1C(C(O)CNCCCN(C)C)OC2OC3(CCCCC3)OC21 (stereo unspecified)
GI50 (786-0): 1.9 µM (inactive)
GI50 (A549): 3.32 µM (inactive)
GI50 (ACHN): 2.81 µM (inactive)
GI50 (CAKI-1): 1.75 µM (inactive)
GI50 (CCRF-CEM): 1.71 µM (inactive)
GI50 (COLO 205): 2 µM (inactive)
GI50 (DU-145): 3.35 µM (inactive)
GI50 (EKVX): 3.71 µM (inactive)
GI50 (HCC 2998): 2.57 µM (inactive)
GI50 (HCT-116): 1.99 µM (inactive)
GI50 (HCT-15): 1.69 µM
GI50 (HL-60): 1.69 µM (inactive)
GI50 (HOP-62): 1.75 µM (inactive)
GI50 (HOP-92): 1.07 µM (active)
GI50 (HT-29): 1.62 µM (inactive)
GI50 (Hs-578T): 3.17 µM (inactive)
GI50 (IGROV-1): 1.93 µM (inactive)
GI50 (K562): 1.63 µM (inactive)
GI50 (KM12): 1.51 µM (inactive)
GI50 (LOX IMVI): 1.09 µM (active)
GI50 (M14): 2 µM (inactive)
GI50 (MCF7): 2.07 µM (inactive)
GI50 (MDA-MB-231): 1.8 µM (inactive)
GI50 (MDA-MB-435): 2.03 µM (inactive)
GI50 (MDA-N): 1.96 µM (inactive)
GI50 (MOLT-4): 1.77 µM (inactive)
GI50 (Malme-3M): 1.99 µM (inactive)
GI50 (NCI-H226): 18.5 µM (inactive)
GI50 (NCI-H23): 1.48 µM (inactive)
GI50 (NCI-H460): 1.97 µM (inactive)
GI50 (NCI-H522): 1.82 µM (inactive)
GI50 (NCI/ADR-RES): 3.31 µM (inactive)
GI50 (OVCAR-3): 1.96 µM (inactive)
GI50 (OVCAR-4): 2.04 µM (inactive)
GI50 (OVCAR-5): 1.72 µM (inactive)
GI50 (OVCAR-8): 2.39 µM (inactive)
GI50 (PC-3): 2.26 µM (inactive)
GI50 (RPMI-8226): 1.94 µM (inactive)
GI50 (RXF 393): 1.93 µM (inactive)
GI50 (SF-268): 2.17 µM (inactive)
GI50 (SF-295): 1.86 µM (inactive)
GI50 (SK-MEL-28): 1.66 µM (inactive)
GI50 (SK-MEL-2): 2.32 µM (inactive)
GI50 (SK-MEL-5): 1.89 µM (inactive)
GI50 (SK-OV-3): 3.65 µM (inactive)
GI50 (SN12C): 2.33 µM (inactive)
GI50 (SNB-19): 1.75 µM (inactive)
GI50 (SNB-75): 0.0491 µM (active)
GI50 (SR): 0.329 µM (active)
GI50 (SW-620): 1.74 µM (inactive)
GI50 (T47D): 2.75 µM (inactive)
GI50 (TK-10): 3.21 µM (inactive)
GI50 (U-251): 1.84 µM (inactive)
GI50 (UACC-257): 4.05 µM (inactive)
GI50 (UACC-62): 2.79 µM (inactive)
GI50 (UO-31): 2.37 µM (inactive)

COC(=O)c1ccc2c(c1)CC1(C2)Cc2cc3c(cc2C1=O)CCC3 (stereo unspecified)
GI50 (786-0): 53 µM (inactive)
GI50 (A498): 64.3 µM (inactive)
GI50 (A549): 36.7 µM (inactive)
GI50 (ACHN): 34.9 µM (inactive)
GI50 (CAKI-1): 14.6 µM (inactive)
GI50 (CCRF-CEM): 15 µM (inactive)
GI50 (COLO 205): 14.8 µM (inactive)
GI50 (DU-145): 57.7 µM (inactive)
GI50 (EKVX): 61.2 µM (inactive)
GI50 (HCC 2998): 40.3 µM (inactive)
GI50 (HCT-116): 29.6 µM (inactive)
GI50 (HCT-15): 34.9 µM
GI50 (HL-60): 16.8 µM (inactive)
GI50 (HOP-62): 46.5 µM (inactive)
GI50 (HOP-92): 28.2 µM (inactive)
GI50 (HT-29): 15.4 µM (inactive)
GI50 (Hs-578T): 77.4 µM (inactive)
GI50 (IGROV-1): 44.1 µM (inactive)
GI50 (K562): 17.5 µM (inactive)
GI50 (KM12): 9.46 µM (inactive)
GI50 (LOX IMVI): 24.3 µM (inactive)
GI50 (M14): 19.2 µM (inactive)
GI50 (MCF7): 20.9 µM (inactive)
GI50 (MDA-MB-231): 36.4 µM (inactive)
GI50 (MDA-MB-435): 23.8 µM (inactive)
GI50 (MDA-N): 21.1 µM (inactive)
GI50 (MOLT-4): 10.9 µM (inactive)
GI50 (Malme-3M): 27.4 µM (inactive)
GI50 (NCI-H23): 43.6 µM (inactive)
GI50 (NCI-H460): 37.2 µM (inactive)
GI50 (NCI-H522): 39.6 µM (inactive)
GI50 (NCI/ADR-RES): 22 µM (inactive)
GI50 (OVCAR-3): 26.7 µM (inactive)
GI50 (OVCAR-4): 24.7 µM (inactive)
GI50 (OVCAR-5): 84.1 µM (inactive)
GI50 (OVCAR-8): 31.6 µM (inactive)
GI50 (PC-3): 39.4 µM (inactive)
GI50 (RPMI-8226): 13.2 µM (inactive)
GI50 (RXF 393): 30.1 µM (inactive)
GI50 (SF-268): 79.6 µM (inactive)
GI50 (SF-295): 56.5 µM (inactive)
GI50 (SF-539): > 100 µM (inactive)
GI50 (SK-MEL-28): 46.1 µM (inactive)
GI50 (SK-MEL-2): 38.8 µM (inactive)
GI50 (SK-MEL-5): 9.18 µM (inactive)
GI50 (SK-OV-3): 98.6 µM (inactive)
GI50 (SN12C): 22 µM (inactive)
GI50 (SNB-19): > 100 µM (inactive)
GI50 (SNB-75): 21.6 µM (inactive)
GI50 (SW-620): 60.4 µM (inactive)
GI50 (T47D): 42.5 µM (inactive)
GI50 (TK-10): 54.1 µM (inactive)
GI50 (U-251): 33.7 µM (inactive)
GI50 (UACC-257): 18.3 µM (inactive)
GI50 (UO-31): 38.7 µM (inactive)
